This note sets out measurements from patent publication US20240247074A1, “THERAPEUTIC STRATEGY FOR NON-SMALL CELL LUNG CANCER AND OTHER CANCERS” (New York University, priority 2023, published 2024).

One assay deals with A549 xenograft tumor. Description: A549 xenograft tumor growth in nu/nu mice. In kind it is in vivo, mouse. Conditions: LKB1 mutant A549 xenograft, 12.5 mg/kg once per week from about 100 mm^3, vs hIgG1, FIG. 5. How it is done:
(§1) FIG. 5. Daratumumab induces killing of CD38 positive lung cancer. […] A549 (A-C) or HCC44 (D-F) xenograft tumor growth in response to daratumumab treatment. For each mouse, 3×10^6 A549 cells (A) or 5×10^5 HCC44 (D) were implanted into nu/nu mice subcutaneously. Daratumumab or hIgG1 (12.5 mg/kg, once per week) was dosed when tumor size reached 100 mm^3. Growth curve of A549 cells (A) or HCC44 (D) after daratumumab treatment. B-C, Individual mouse tumor growth curve for A549 xenografts treated with either hIgG1 (B) or Daratumumab (C) shown in panel A. (E-F), Individual mouse tumor growth curve for HCC44 xenograft treated with either hIgG1 (E) or Daratumumab (F) shown in panel D.
(§2) To study the effects of daratumumab in vivo, we implanted the LKB1 mutant A549 and HCC44 cell lines into athymic nude (nu/nu) mice to generate tumor xenografts. Daratumumab is a human IgG1, which can be recognized by mouse FcγRs on effector cells, resulting in ADCC induced between daratumumab with mouse NK cells through crosstalk, enabling evaluation of NK cell-mediated tumor cell killing in vivo. When tumors reached approximately 100 mm^3 in volume, mice were treated with daratumumab once weekly.

For another assay, the system named is HCC44 xenograft tumor. Description: HCC44 xenograft tumor growth in nu/nu mice. The format is in vivo, mouse. Conditions: LKB1 mutant HCC44 xenograft, 12.5 mg/kg once per week from about 100 mm^3, vs hIgG1, FIG. 5. How it is done:
as §1, §2

In assay [1] the test system is CD38 expression. Nature of the assay: Flow cytometric analysis of CD38 expression after SIK inhibitor treatment in LKB1 WT mouse cancer cell lines. In kind it is cell-based. The conditions noted are these: LKB1 WT mouse lung cancer (KPC), colon cancer (CT26, MC38) and pancreatic cancer (KP1) lines; flow cytometry; FIG. 3. The source says: FIG. 3. SIK inhibitor increases upregulation of CD38 in LKB1 wildtype tumors. Flow cytometric analysis of CD38 expression changes after SIK inhibitor YKL-05-099 treatment in lung cancer (KPC) (A), and colon cancer (CT26, MC38) or pancreatic cancer (KP1) lines (B) at the indicated time points and concentration.
In line with the results of the LKB1 rescue studies, CRISPR-mediated knockout of Lkb1 in murine KP NSCLC cells led to increased cell surface expression of CD38 (FIG. 2A, 2B). We subsequently tested the impact of knockout of Sik1, Sik2 and Sik3, alone or in combination. We observed prominent increases in CD38 expression at the cell surface in KP cells upon inactivation of Sik1 or of all three SIK family members, but not to the level of CD38 in KP sgLkb1 cells (FIG. 2A, 2B). Without intending to be constrained by any particular theory, it is considered this indicates other factors other than SIK1/2/3 downstream of LKB1, might also contribute to the suppression of CD38 expression.

The subject of assay [2] is CD38 expression. Description: FACS analysis of CD38 expression in LKB1 mutant tumors after EP300 inhibitor treatment. The conditions noted are these: LKB1 mutant lung cancer tumors, FIG. 6A, 6B. In kind it is cell-based. An excerpt: (§3) FIG. 6. EP300 inhibition suppresses LKB1 mutant tumor progression. (A), EP300 inhibitors CCS1477 and A485 suppresses CD38 expression in LKB1 mutant tumors. (B), Representative FACS analysis of CD38 expression after drug treatment. (C), Tumor volume changes of KL tumors after indicated EP300 inhibitors treatment. (D). Tumor growth curve of KL tumors treated with CCS1477 or A485.
(§4) Since LKB1/SIK suppresses CD38 expression through CTRC/EP300/CREB complex, we further tested inhibition of CD38 via EP300 inhibitors, including CCS1477 and A485, in LKB1 mutant lung cancer tumors.
(In general: In flow cytometry, cells or beads pass a laser one at a time.)

Assay [3] concerns KL tumors (LKB1 mutant lung cancer tumors). Nature of the assay: KL tumor growth after EP300 inhibitor treatment. The format is in vivo. Conditions: FIG. 6C, 6D.
From the text: as §3, §4

Take “daratumumab: first approved antibody against CD38, a fully human IgG1-κ monoclonal antibody”: the tumor growth entry in the assay with A549 xenograft tumor and with HCC44 xenograft tumor was “significant reduction in tumor growth” each time.
Turning to `COc1ccc(N2C(=O)N(c3c(C)cccc3Cl)Cc3cnc(Nc4ccc(C5CCN(C)CC5)cc4OC)nc32)nc1` [YKL-05-099], the CD38 expression change result in the assay on CD38 expression [1] is on record as “upregulated CD38”.
Turning to `CNC(=O)Nc1ccc2c(c1)CC[C@@]21OC(=O)N(CC(=O)N(Cc2ccc(F)cc2)[C@@H](C)C(F)(F)F)C1=O` [A485], the “CD38 expression on the tumor cells” value in the assay on CD38 expression [2] is listed as “decrease of CD38 expression”. The “tumor growth in vivo” value in assay [3] is recorded as “reduced tumor growth”.
Take `CO[C@H]1CC[C@H](n2c([C@@H]3CCCC(=O)N3c3ccc(F)c(F)c3)nc3cc(-c4c(C)noc4C)ccc32)CC1` [CCS1477]: the “CD38 expression on the tumor cells” value with CD38 expression [2] is reported as “decrease of CD38 expression”. In assay [3], the “tumor growth in vivo” value is “reduced tumor growth”.
